Experimental data from US7091247B2, “Biphenyl compound” (Takeda Pharmaceutical Company Limited, priority 2000, dated 2006).
Counter-ions that a name gives are not always drawn.

Assays:
human GPR14 = target: T1, human GPR14 (Homo sapiens, UniProt Q9UKP6); test: Inhibition of binding of [125I]-labeled human urotensin II to human GPR14-expressing CHO cell membrane fraction; conditions: 25° C., 3 hours, read-out: Inhibitory concentration (concentration showing 50% inhibition of human GPR14 binding activity)
T1 construct: expressed in transfected cells; host or cells: CHO dhfr- cells stably transfected with pcDNA3.1-hGPR14 (CHO/hGPR14)
T1 sequence (Q9UKP6 1-389): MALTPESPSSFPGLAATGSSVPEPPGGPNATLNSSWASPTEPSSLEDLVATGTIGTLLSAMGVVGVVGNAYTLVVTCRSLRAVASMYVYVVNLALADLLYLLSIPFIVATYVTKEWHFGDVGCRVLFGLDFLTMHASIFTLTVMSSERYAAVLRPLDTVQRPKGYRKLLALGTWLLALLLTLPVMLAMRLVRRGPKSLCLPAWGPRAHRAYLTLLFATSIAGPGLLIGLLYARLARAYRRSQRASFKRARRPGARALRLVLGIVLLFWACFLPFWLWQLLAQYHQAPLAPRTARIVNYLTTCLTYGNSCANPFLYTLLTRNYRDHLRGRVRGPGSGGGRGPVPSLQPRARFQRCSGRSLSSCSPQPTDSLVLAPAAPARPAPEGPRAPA
Protocol: To 1×10^8 CHO/GPR14 cells were added 10 ml of homogenate buffer (10 mM NaHCO3, 5 mM EDTA, 0.5 mM PMSF, 1 μg/ml pepstatin, 4 μg/ml E64, 20 μg/ml leupeptin), and disrupted using Polytron (12,000 rpm, 1 minute). Cell debris solution was centrifuged at 1,000 g for 15 minutes to obtain a supernatant. The supernatant was then […] (in Beckman type 30 rotor, 30,000 rpm, 1 hour), and the resultant precipitant was collected as human GPR14-expressing CHO cell fraction.
Isotope-labeled human urotensin II to be used in experiments for testing inhibition of binding was prepared as described below. 5 μg of human urotensin II (available from Peptide Institute, Inc.) was dissolved in 25 μl of 0.4 M sodium acetate (pH 5.6). […]
Human GPR14-expressing CHO cell fraction was diluted in a membrane diluting buffer (20 mM phosphate buffer (pH 7.3), 150 mM NaCl, 5 mM MgCl2, 0.1% BSA, 0.05% CHAPS, 0.5 mM PMSF, 0.1 μg/ml Pepstatin, 20 μg/ml Leupeptin, 4 μg/ml E-64) to prepare a solution of cell membrane fraction (protein concentration: 3 μg/ml) for assay. […] Next, the filter was washed three times with membrane diluting buffer (0.2 ml), added with 20 μl of Microscinti 20 (Packard), and determined for radioactivity in Topcount (Packard). Specific-binding is calculated by subtracting non-specific binding from the total binding. […]

[1] = target: T2, GPR14-expressing CHO cells (Homo sapiens, UniProt Q9UKP6); test: Change in intracellular calcium concentration in human GPR14-expressing CHO cells (FLIPR, urotensin II-induced); format: cell-based; conditions: antagonist activity assay, 10 nM urotensin II added
T2 construct: expressed in transfected cells; host or cells: CHO dhfr- cells stably transfected with pcDNA3.1-hGPR14 (CHO/hGPR14)
T2 sequence (Q9UKP6 1-389): T1 sequence (Q9UKP6 1-389)
Protocol: GPR14-expressing CHO cells were inoculated on a 96-well plate at 1×10^4 cell/well, cultured for 48 hours, and then washed with 0.1 ml of HBSS containing 20 mM HEPES(pH 7.4), 1% FCS and 1% penicillin-streptomycin (hereinafter referred to as “wash buffer”). Next, 100 μl of another wash buffer containing 4 μM Fluo3, 0.04% pluronic acid and 2.5 mM probenicid (hereinafter referred to as “reaction buffer”) was added thereto for reaction at 37° C. for 1 hour. The reaction buffer was then removed and the plate was washed three times with 0.2 ml of wash buffer. Then, 90 μl of wash buffer and 10 μl of a solution of test compound in dimethylsulfoxide diluted 10 times (by volume) in membrane diluting buffer were added for agonist activity assay, while, for antagonist activity assay, furthermore 10 μl of 10 nM urotensin II was additionally added to determine change in intracellular calcium concentration in FLIPR (Japan Molecular Device).

[2] = target: T3, human somatostatin receptor protein subtype 5 (SSTR5) (Homo sapiens, UniProt P35346); test: Inhibition of binding of [125I]-somatostatin to SSTR5-expressing CHO cell membrane fraction; conditions: 25° C., 60 minutes, Hill plots, read-out: IC50 (concentration at which 50% binding of [125I]-somatostatin was inhibited)
T3 construct: expressed in transfected cells; host or cells: CHO (dhfr-) cells transfected with pA-1-11-SSTR5; clone SSTR5-32-4
Protocol: (3) —(CH2)h1—X^1—(CH2)h2—X^2—(CH2)h3— (h1, h2 and h3 are the same or different integers 0 to 10 provided that the sum of h1, h2 and h3 is 0 to 10, and X^1 and X^2 independently represent NH, O, S, SO or SO2 provided that, when h2 is 0, at least one of X^1 and X^2 is preferably NH); etc., and these divalent groups wherein some bonds have been converted into unsaturated bonds. […]
The SSTR5-expressing CHO cell membrane fraction prepared in Example 5 was diluted with the assay buffer to prepare a solution at a concentration of 3 •g/ml and pipetted into tubes (173 •l/tube). […] After filtration, the radioactivity of [^125I]-somatostatin remaining on the glass filer was measured with a • counter.
The degree of inhibition of binding (%) by each test substance was determined according to the following equation: The degree of inhibition of binding (%)=(radioactivity when the compound was added−radioactivity when DMSO solution was added)/(radioactivity when somatostatin was added−radioactivity when DMSO solution was added)×100. […]

T3 sequence (P35346 whole entry): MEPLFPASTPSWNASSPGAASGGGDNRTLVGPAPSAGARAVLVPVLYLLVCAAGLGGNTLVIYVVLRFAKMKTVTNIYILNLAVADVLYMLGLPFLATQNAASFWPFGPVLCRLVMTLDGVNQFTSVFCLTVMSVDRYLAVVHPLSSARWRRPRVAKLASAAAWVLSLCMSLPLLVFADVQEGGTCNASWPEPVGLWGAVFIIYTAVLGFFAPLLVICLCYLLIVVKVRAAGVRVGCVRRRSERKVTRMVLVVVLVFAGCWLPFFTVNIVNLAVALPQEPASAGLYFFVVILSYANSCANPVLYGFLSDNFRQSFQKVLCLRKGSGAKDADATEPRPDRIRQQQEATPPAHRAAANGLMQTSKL

Compound | IC50 (human GPR14) [nM] | IC50 [2] [nM] | also measured
NS(=O)(=O)c1ccc(CCN(Cc2cccc(-c3cccc(C(=O)NCCN4CCCC4)c3)c2)C(=O)CCCc2ccccc2)cc1 [Example 4, 3′-{({2-[4-(Aminosulfonyl)phenyl]ethyl}[4-phenylbutanoyl]amino)methyl}-N-[2-(1-pyrrolidinyl)ethyl][1,1′-biphenyl]-3-carboxamide hydrochloride] | 10 | – | –
NS(=O)(=O)c1ccc(CCN(Cc2cccc(-c3cccc(C(=O)NCCN4CCCC4)c3)c2)C(=O)COCc2ccccc2)cc1 [Example 6, 3′-{({2-[4-(Aminosulfonyl)phenyl]ethyl}[(benzyloxy)acetyl]amino)methyl}-N-[2-(1-pyrrolidinyl)ethyl][1,1′-biphenyl]-3-carboxamide hydrochloride] | 13 | – | –
NCCNC(=O)c1cccc(-c2cccc(CN(CCc3ccc(S(N)(=O)=O)cc3)C(=O)/C=C/c3ccccc3)c2)c1.O=C(O)C(F)(F)F [Example 71, N-(2-Aminoethyl)-3′-({[4-(aminosulfonyl)phenethyl][(E)-3-phenyl-2-propenoyl]amino}methyl)[1,1′-biphenyl]-3-carboxamide trifluoroacetate] | – | – | Inhibition of urotensin II-induced increase in intracellular calcium concentration [1]: inhibited urotensin II-induced increase in intracellular calcium concentration
N=C(N)NCc1cccc(C(=O)N(Cc2cccc(-c3ccccc3C(=O)NCCN)c2)Cc2cccc3ccccc23)c1 [Example 325, N-(2-Aminoethyl)-3′-{[[3-({[amino(imino)methyl]amino}methyl)benzoyl](1-naphthylmethyl)amino]methyl}-1,1′-biphenyl-2-carboxamide trifluoroacetate] | – | 6 | –
NCCNC(=O)c1ccccc1-c1cccc(CN(Cc2cccc3ccccc23)C(=O)c2ccc(S(N)(=O)=O)cc2)c1 [Example 328, N-(2-Aminoethyl)-3′-{[[4-(aminosulfonyl)benzoyl](1-naphthylmethyl)amino]methyl}-1,1′-biphenyl-2-carboxamide trifluoroacetate] | – | 3 | –
